US10851075B2, “Stat3 pathway inhibitors and cancer stem cell inhibitors” (Sumitomo Dainippon Pharma Oncology, Inc., priority 2007, dated 2020)
Where two headings read alike, the source gives them in different places.

Legend:
[1] = tested on: FaDu cells; experiment: MTT cell viability, FaDu; format: cell-based; conditions: Homo sapiens, MTT at 24 hours, Table 4, read-out: IC50 (μM) FaDu
Description: (§1) Cell Culture: HeLa, DU145, H1299, DLD1, SW480, A549, MCF7, LN18, HCT116, HepG2, Paca2, Panel, LNcap, FaDu, HT29, and PC3 cells (ATCC, Manassas, Va.) were maintained in Dulbecco's Modified Eagle Medium (DMEM) (Invitrogen, Carlsbad, Calif.) supplemented with 10% fetal bovine serum (MS) (Gemini Bio-Products, West Sacramento, Calif.) and 5% penicillin/streptomycin/amphotercin B (Invitrogen).
(§2) Cell Viability Determination: For 3-(4,5 dimethylthiazol-2-yl)-2,5-diphenyltetrazolium (MTT) (Sigma-Aldrich, St. Louis, Mo.) analysis, cells were plated in 96 well plates at 10,000 cells per well. 24 hours after plating, compound was added to cells at indicated doses. 22 hours following compound addition, MTT was added to each well (0.5 mg/ml, final concentration) and plates were incubated for an additional 2 hours at 37° C., Medium was then aspirated and the formazan product was solubilized in 100 μl of isopropyl alcohol. The absorbance of each well was measured at 570 nm using a microplate reader.
(§3) Identification of compounds that are apoptotic to a broad spectrum of cancer cells in vitro. Cells plated in 96 well plates and treated with indicated compounds were subjected to MTT analysis at 24 hours following compound treatment to determine cell viability.

[2] = biological target: T1, Stat3 DNA-binding activity (Homo sapiens, UniProt P40763); experiment: Stat3 DNA binding assay (EMSA), HeLa nuclear extract; format: biochemical; conditions: for inhibition % 1 × MTT IC50: compound at 1 × MTT IC50, untreated Stat3 retarded band set as 100; for inhibition % 3 × MTT IC50: compound at 3 × MTT IC50, untreated Stat3 retarded band set as 100
T1 construct: endogenous in cells; host or cells: HeLa cells (nuclear extract)
T1 sequence (P40763 whole entry): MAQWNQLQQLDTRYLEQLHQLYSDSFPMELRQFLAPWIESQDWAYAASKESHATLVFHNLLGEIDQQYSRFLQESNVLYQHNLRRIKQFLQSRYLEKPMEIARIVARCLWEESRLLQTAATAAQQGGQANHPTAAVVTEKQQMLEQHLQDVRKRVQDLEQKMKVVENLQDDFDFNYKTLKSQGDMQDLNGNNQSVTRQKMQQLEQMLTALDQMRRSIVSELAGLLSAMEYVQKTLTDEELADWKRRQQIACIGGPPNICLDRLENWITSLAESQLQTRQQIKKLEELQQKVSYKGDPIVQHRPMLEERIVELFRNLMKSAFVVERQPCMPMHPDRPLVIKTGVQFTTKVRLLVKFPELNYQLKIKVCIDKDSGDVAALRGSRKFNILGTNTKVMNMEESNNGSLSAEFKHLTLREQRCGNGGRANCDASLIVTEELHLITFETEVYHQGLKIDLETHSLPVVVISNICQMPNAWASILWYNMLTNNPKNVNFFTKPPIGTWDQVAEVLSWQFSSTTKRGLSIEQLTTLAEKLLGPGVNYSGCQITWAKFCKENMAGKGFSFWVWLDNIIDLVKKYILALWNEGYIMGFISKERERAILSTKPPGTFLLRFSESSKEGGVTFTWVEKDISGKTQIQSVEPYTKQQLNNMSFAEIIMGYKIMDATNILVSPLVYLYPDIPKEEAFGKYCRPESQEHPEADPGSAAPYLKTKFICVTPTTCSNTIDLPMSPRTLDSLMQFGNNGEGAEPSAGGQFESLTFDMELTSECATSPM
Procedure: STAT3 DNA Binding Assay: Electrophoretic mobility shift assay (EMSA) was performed as described by the manufacturer (Li-Cor Biosciences, Lincoln, Nebr.). Briefly, nuclear extracts were made from HeLa cells using the NucBuster Protein Extraction Kit as described by the manufacturer (EMD Biosciences, San Diego, Calif.). 5 μg of nuclear extract was pre-incubated with the indicated dose of indicated compound for 30 minutes prior to a 15-minute incubation with the IR700-labeled consensus Stat3 oligonucleotide. Samples were then electrophoresed on a polyacrylamide gel and directly scanned using the Odyssey infrared imaging system (Li-Cor Biosciences). For the enzyme-linked immunosorbent assay (ELISA), 5 μg of nuclear extract was preincubated with indicated concentration of indicated compound for 30 minutes prior to the addition of biotinylated oligo (5′-Biotin-[…]-3′). Stat3-DNA complexes were then captured on streptavidin coated 96 well plates (Pierce, Rockford, Ill.). Bound complexes were then incubated with Stat3 polyclonal antibody (Santa Cruz Biotechnology, Santa Cruz, Calif.) followed by anti-rabbit HRP conjugated secondary antibody (GE Healthcare, Pittsburgh, Pa.). Bound antibody was then visualized by addition of TMB substrate (Pierce) and absorbance measured at 450 nm.
Inhibition of Stat3 DNA-binding activity. Nuclear extracts from HeLa cells, which contain constitutively activated Stat3 as detected by phoshporylation at the tyrosine 705 residue, were used to perform Stat3 EMSAs to monitor Stat3 DNA binding activity. Nuclear extracts were incubated with indicated compound prior to incubation with IR700-labeled Stat3 consensus oligonucleotide. Binding of Stat3 to the oligonucleotide was monitored by gel electrophoresis and detection using a LiCor Odyssey infrared scanner.
To calculate the inhibition %, the density of the untreated Stat3 retarded band (control) was set as 100 and the inhibition % was the difference between the control and the relative DNA binding activity of the drug-treated samples.

[3] = tested on: SW480 Hoechst SP cells; experiment: Anti-CSC MTT assay, SW480 Hoechst side population (SP) cells; format: cell-based; conditions: Homo sapiens, 48 h
Procedure: as §2
(§4) Hoechst Side Population: To identify and isolate side population (SP) and non-SP fractions, SW480 cells were removed from the culture dish with trypsin and EDTA, pelleted by centrifugation, washed with phosphate-buffered saline (PBS), and resuspended at 37° C. in Dulbecco's modified Eagle's medium (DMEM) containing 2% FBS and 1 rnM HEPES. The cells were then labeled with Hoechst 33342 (Invitrogen) at a concentration of 5 μg/mL. The labeled cells were incubated for 120 minutes at 37° C., either alone or with 50 μM verapamil (Sigma-Aldrich, St. Louis). After staining, the cells were suspended in Hanks' balanced saline solution (MISS; Invitrogen) containing 2% FBS and 1 mM HEPES, passed a through 40 μm mesh filter, and maintained at 4° C. until flow cytometry analysis. The Hoechst dye was excited at 350 nm, and its fluorescence was measured at two wavelengths using a 450 DF10 (450/20 nm band-pass filter) and a 675LP (675 nm long-pass edge filter) optical filter. The gating on forward and side scatter was not stringent, and only debris was excluded.
(§5) In order to test compounds for anti-CSC activity, freshly isolated CSCs (SW480 Hoechst SP cells or CD44^high FaDu cells) were exposed to a dose range (30-0.117 μM) of compound for 48 h before examining cell viability by MTT assay. IC50s were estimated by plotting the percentage of surviving cells. As shown in Table 7 and Table 8, the compounds of present invention can target cancer stem cells.

[4] = tested on: SW480 NSP cells; experiment: Anti-CSC MTT assay, SW480 non-SP (NSP) cells; format: cell-based; conditions: Homo sapiens, 48 h
Procedure: as §2, §4, §5

[5] = tested on: DU145 cells; experiment: MTT cell viability, DU145; format: cell-based; conditions: Homo sapiens, DU-145, MTT at 24 hours
Description: as §1, §2, §3

[6] = tested on: A549 cells; experiment: MTT cell viability, A549; format: cell-based; conditions: Homo sapiens; A549, Lung; MTT at 24 hours following compound treatment; Table 3
Description: as §1, §2, §3

[7] = tested on: H1299 cells; experiment: MTT cell viability, H1299; format: cell-based; conditions: Homo sapiens, NCI-H1299, MTT at 24 hours
Description: as §1, §2, §3

[8] = tested on: MCF7 cells; experiment: MTT cell viability, MCF7; format: cell-based; conditions: Homo sapiens; MCF7, Breast; MTT at 24 hours; Table 3
Description: as §1, §2, §3

[9] = tested on: HeLa cells; experiment: MTT cell viability, HeLa; format: cell-based; conditions: Homo sapiens, MTT at 24 hours
Description: as §1, §2, §3

[10] = tested on: DLD1 cells; experiment: MTT cell viability, DLD1; format: cell-based; conditions: Homo sapiens, DLD-1; DLD1, Colon; MTT at 24 hours; Table 3
Description: as §1, §2, §3

[11] = tested on: SW480 cells; experiment: MTT cell viability, SW480; format: cell-based; conditions: Homo sapiens; SW480, Colon; MTT at 24 hours; Table 3
Description: as §1, §2, §3

[12] = tested on: HCT116 cells; experiment: MTT cell viability, HCT116; format: cell-based; conditions: Homo sapiens, HCT-116; HCT116, Colon; MTT at 24 hours; Table 3
Description: as §1, §2, §3

[13] = tested on: HT29 cells; experiment: MTT cell viability, HT29; format: cell-based; conditions: Homo sapiens, HT-29; HT29, Colon; MTT at 24 hours; Table 3
Description: as §1, §2, §3

[14] = tested on: Paca2 cells; experiment: MTT cell viability, Paca2; format: cell-based; conditions: PaCa-2; Paca2, Pancreas; MTT at 24 hours; Table 3
Description: as §1, §2, §3

[15] = tested on: Panc1 cells; experiment: MTT cell viability, Panc1; format: cell-based; conditions: Homo sapiens, PANC-1; Panc1, Pancreas; MTT at 24 hours; Table 3
Description: as §1, §2, §3

[16] = tested on: PC3 cells; experiment: MTT cell viability, PC3; format: cell-based; conditions: Homo sapiens, PC-3; PC3, Prostate; MTT at 24 hours; Table 3
Description: as §1, §2, §3

[17] = tested on: Stat3 transcription activity; experiment: Stat3-luciferase (Stat3-Luc) reporter assay in HeLa cells, OSM stimulated; format: cell-based; conditions: Homo sapiens, compound 30 minutes before 25 ng/ml oncostatin M, 6 hours, read-out: IC50 in Stat3-Luc assays
Procedure: Luciferase Reporter Assay: HeLa Cells were co-transfected with Stat3-luciferase (Stat3-Luc) reporter vector (Panomics, Fremont, Calif.) and Renilla luciferase (Promega, Madison, Wis.) using Lipofectamine 2000 as described by the manufacturer (Invitrogen). Following transfection, cells were maintained in medium containing 0.5% FBS for 24 hours. Cells were then treated with the indicated compound for 30 minutes prior to the addition of 25 ng/ml oncostatin M (OSM) (R&D Systems, Minneapolis, Minn.) to the medium. 6 hours following OSM addition, cells were harvested and levels of firefly and renilla luciferase were measured using the Dual-Glo Luciferase Assay System as described by the manufacturer (Promega).
Inhibition of Stat3 transcription activity. Compounds were tested for their ability to inhibit Stat3 transcription activation activity in cells using a Stat3-luciferase (Stat3-luc) reporter construct. Cells transfected with Stat3-luc were cultured in reduced serum medium prior to addition of indicated compound for 30 minutes. Cells were then stimulated with 25 ng/ml oncostatin (OSM) for 6 hours followed by detection of Stat3-luc reporter activity.

[18] = DU145, Table 4, read-out: IC50 (μM) DU145
[19] = H1299, Lung, Table 3, read-out: IC50
[20] = H1299, Table 4, read-out: IC50 (μM) H1299
[21] = HeLa, Cervix, Table 3, read-out: IC50
[22] = Hela, Table 4, read-out: IC50 (μM) Hela
[23] = DU145, Prostate, Table 3, read-out: IC50

Compound | inhibition % 1 × MTT IC50 [2] | inhibition % 3 × MTT IC50 [2] | IC50 [3] | IC50 [4] | IC50 [5, 18] | IC50 [6] | IC50 [7, 19] | IC50 [7, 20] | IC50 [8] | IC50 [9, 21] | IC50 [9, 22] | IC50 [10] | IC50 [11] | IC50 [12] | IC50 [13] | IC50 [14] | IC50 [15] | IC50 [5, 23] | IC50 [16] | IC50 [17] | further results
CC(=O)c1oc2c(c1CBr)C(=O)c1ccccc1C2=O [Compound 420] | 47% | 63% | 0.59 µM | 0.51 µM | – | – | – | – | – | – | – | – | – | – | – | – | – | – | – | – | IC50 [1]: 3.5 µM
CCc1cc2c(o1)C(=O)c1cc(F)ccc1C2=O [Compound 106] | 26% | 51% | 4.44 µM | 2 µM | 4.84 µM | – | – | – | – | – | – | – | – | – | – | – | – | – | – | – | –
O=C(c1ccccc1)c1cc2c(o1)C(=O)c1ccccc1C2=O [Compound 412] | – | – | – | – | 0.327 µM | 3.16 µM | 0.52 µM | 0.524 µM | 1.15 µM | 1.69 µM | 1.69 µM | 1.11 µM | 1.31 µM | 2.02 µM | 4.64 µM | 0.64 µM | 3.69 µM | 0.33 µM | 4.45 µM | ~0.75 µM | –
CC(=O)c1cc2c(o1)C(=O)c1cc(Cl)ccc1C2=O [Compound 416] | – | – | – | – | 0.211 µM | 1.9 µM | 0.25 µM | 0.337 µM | 0.75 µM | 0.62 µM | 0.711 µM | 0.54 µM | 0.44 µM | 0.69 µM | 1.91 µM | 0.21 µM | 2.59 µM | 0.22 µM | 3.1 µM | – | inhibition of Stat3 DNA binding (in words) ([2]; HeLa nuclear extract, FIG. 6A/6B): inhibits Stat3 DNA-binding activity
O=C(c1ccccc1)c1cc2c(s1)C(=O)c1ccccc1C2=O [Compound 402] | 29% | 57% | 0.4 µM | 0.38 µM | 0.554 µM | – | 1.04 µM | 1.04 µM | – | 2.01 µM | 2.01 µM | 2.51 µM | 1.49 µM | – | – | 0.49 µM | 7.21 µM | 0.55 µM | 8.48 µM | ~0.75 µM | –
CC(=O)c1cc2c(o1)C(=O)c1cc(F)ccc1C2=O [Compound 418] | 39% | 63% | 0.34 µM | 0.33 µM | 0.164 µM | 1.06 µM | 0.34 µM | 0.317 µM | 0.46 µM | 0.8 µM | 0.488 µM | 0.64 µM | 0.76 µM | 0.61 µM | 1.83 µM | 0.21 µM | 1.54 µM | 0.18 µM | 3.04 µM | – | –
